Paper PMC4494766 (Monatshefte Fur Chemie, 2011)
In brackets after ≈: the same amount, converted by molar mass.

Legend:
[1] = test system: Wells; test: Widened tuberculostatic tests; assay type: cell-based, Mycobacterium
[2] = test system: An5; test: Widened tuberculostatic tests; assay type: cell-based, Mycobacterium
[3] = test system: Fortuitum; test: Widened tuberculostatic tests; assay type: cell-based, Mycobacterium
[4] = test system: Intracellularum; test: Widened tuberculostatic tests; assay type: cell-based, Mycobacterium
[5] = test system: Scrofulaceum; test: Widened tuberculostatic tests; assay type: cell-based, Mycobacterium
[6] = test system: M. tuberculosis H37Rv strain; test: Tuberculostatic activity, test-tube successive dilution in Youmans' medium; assay type: cell-based; details: Mycobacterium tuberculosis
[7] = test system: M. tuberculosis wild-type strain sp. 192 fully sensitive; test: as above; assay type: cell-based; details: Mycobacterium tuberculosis
[8] = test system: H37Rv; test: Widened tuberculostatic tests; assay type: cell-based, Mycobacterium
[9] = test system: Phlei; test: Widened tuberculostatic tests; assay type: cell-based, Mycobacterium
[10] = test system: Smegmatis; test: Widened tuberculostatic tests; assay type: cell-based, Mycobacterium
[11] = test system: Kirchberg; test: Widened tuberculostatic tests; assay type: cell-based, Mycobacterium
[12] = test system: Kansasii; test: Widened tuberculostatic tests; assay type: cell-based, Mycobacterium
[13] = test system: human non-small lung cancer cell line A549; test: MTT viability assay; assay type: cell-based; details: 120 h
[14] = test system: A549 and HCT116 cell lines; test: MTT cytotoxicity, summary statements without cell line; assay type: cell-based; details: Homo sapiens, read-out: IC 50 (ca., cell line not stated)

SMILES	MIC [1]	MIC [2]	MIC [3]	MIC [4]	MIC [5]	MIC [6]	MIC [7]	MIC [8]	MIC [9]	MIC [10]	MIC [11]	MIC [12]	IC50 [13]	IC50 [14]
CSC(=NNC(=O)c1cccc(O)c1)SC [Compound 9, Dimethyl 3-hydroxybenzoylcarbonohydrazonodithioate]	6.2 μg cm^−3	6.2 μg cm^−3	25 μg cm^−3	25 μg cm^−3	25 μg cm^−3	6.2 µg/mL (≈ 24.2 µM)	6.2 µg/mL (≈ 24.2 µM)	6.2 μg cm^−3						
CSC(=NNC(=O)c1ccccc1[N+](=O)[O-])SC [Compound 6, Dimethyl 2-nitrobenzoylcarbonohydrazonodithioate]						25 µg/mL (≈ 87.6 µM)	50 µg/mL (≈ 175 µM)							
CSC(=NNC(=O)c1ccc(Cl)cc1)SC [Compound 3, Dimethyl 4-chlorobenzoylcarbonohydrazonodithioate]	12.5 μg cm^−3	12.5 μg cm^−3	100 μg cm^−3	50 μg cm^−3	100 μg cm^−3	6.2 µg/mL (≈ 22.6 µM)	12.5 µg/mL (≈ 45.5 µM)	12.5 μg cm^−3	100 μg cm^−3	100 μg cm^−3	25 μg cm^−3	25 μg cm^−3		
COc1ccc(C(=O)NN=C(SC)SC)cc1 [Compound 11, Dimethyl 4-methoxybenzoylcarbonohydrazonodithioate]						25 µg/mL (≈ 92.5 µM)	25 µg/mL (≈ 92.5 µM)							
CSC(=NNC(=O)c1ccccc1Cl)SC [Compound 2, Dimethyl 2-chlorobenzoylcarbonohydrazonodithioate]						25 µg/mL (≈ 91 µM)	25 µg/mL (≈ 91 µM)							
COc1cc(C(=O)NN=C(SC)SC)cc(OC)c1OC [Compound 12, Dimethyl 3,4,5-trimethoxybenzoylcarbonohydrazonodithioate]						25 µg/mL (≈ 75.7 µM)	50 µg/mL (≈ 151 µM)							
CSC(=NNC(=O)c1ccccc1O)SC [Compound 8, Dimethyl 2-hydroxybenzoylcarbonohydrazonodithioate]							25 µg/mL (≈ 97.5 µM)							
N.N.[Cl][Pt][Cl] [Cis-Pt, Cisplatin]													0.63 ± 0.018 µM	
COc1cccc2c1C(=O)c1c(O)c3c(c(O)c1C2=O)C[C@@](O)(C(=O)CO)C[C@@H]3O[C@H]1C[C@H](N)[C@H](O)[C@H](C)O1 [Dox, doxotubicin]													0.008 ± 0.0011 µM	
CSC(=NNC(=O)c1ccc(Cl)c(Cl)c1)SC [Compound 5, Dimethyl 3,4-dichlorobenzoylcarbonohydrazonodithioate]	6.2 μg cm^−3	12.5 μg cm^−3	100 μg cm^−3	100 μg cm^−3	25 μg cm^−3	6.2 µg/mL (≈ 20 µM)	3.1 µg/mL (≈ 10 µM)	6.2 μg cm^−3	100 μg cm^−3	100 μg cm^−3	12.5 μg cm^−3	6.2 μg cm^−3		~30 µM
COc1ccc(CC(=O)NN=C(SC)SC)cc1OC [Compound 13, Dimethyl 2-(3,4-dimethoxyphenyl)acetylcarbonohydrazonodithioate]						25 µg/mL (≈ 79.5 µM)	50 µg/mL (≈ 159 µM)							
CSC(=NNC(=O)c1ccc(Cl)cc1Cl)SC [Compound 4, Dimethyl 2,4-dichlorobenzoylcarbonohydrazonodithioate]	12.5 μg cm^−3	6.2 μg cm^−3			25 μg cm^−3	6.2 µg/mL (≈ 20 µM)	6.2 µg/mL (≈ 20 µM)	6.2 μg cm^−3				25 μg cm^−3		
CSC(=NNC(=O)c1ccc(O)cc1)SC [Compound 10, Dimethyl 4-hydroxybenzoylcarbonohydrazonodithioate]	12.5 μg cm^−3	6.2 μg cm^−3	100 μg cm^−3	100 μg cm^−3	50 μg cm^−3	3.1 µg/mL (≈ 12.1 µM)	6.2 µg/mL (≈ 24.2 µM)	6.2 μg cm^−3	100 μg cm^−3	100 μg cm^−3	50 μg cm^−3	25 μg cm^−3		~100 µM
